Patent publication US11679107B2 (Eisai R&D Management Co., Ltd., priority 2018, dated 2023)
Read-outs that look alike come from different tables or passages of the source.

Assays:
SF3b complexes = target: T1, SF3b complexes (Homo sapiens, UniProt O75533+Q7RTV0); test: Scintillation proximity assay (SPA) with [3H]-labelled pladienolide probe; format: binding; conditions: SF3B1 (WT); geometric mean; read-out: SPA-ATS GMean IC50 (nM) SF3B1 (WT)
T1 construct: endogenous in cells; host or cells: Nuclear extracts; A HeLa S3 extract preparation is described for the in vitro splicing assay
Procedure, shortened: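 SF3b complexes captured from nuclear extracts on anti-SF3B1 antibody SPA beads; test compounds pre-incubated 30 min before 2.5 nM [3H]-pladienolide probe added, then 30 min incubation. Bound probe read by scintillation; values from non-linear regression of concentration–response curves.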

[1] = test system: Ad2 variant pre-mRNAs spliced in HeLa S3 nuclear extracts; test: In vitro splicing assay (IVS), RT-qPCR of spliced product; format: biochemical; conditions: for IC50: geometric mean; for Ratio Ad2.1/2.2: ratio of IVS IC50 Ad2.1 to Ad2.2
Procedure, shortened: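 Read-out is one-step TaqMan RT-qPCR of spliced Ad2 mRNA with Ftz as reference, normalized to DMSO and fit by non-linear regression. Reactions held HeLa S3 nuclear extract, 2 ng Ad2-derived pre-mRNA and test compound, with 15 min preincubation. Splicing was started with ATP-containing activation buffer and run 90 min at 30 °C.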

[2] = test system: NCI-H1568 cells (high MCL1); test: Cell proliferation and viability, CellTiter-Glo, 72 hours; format: cell-based; conditions: for GI50: geometric mean
Procedure, shortened: (§1)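 RPMI-1640/10% FBS (Panc: + insulin, FBS 15%); 11-pt half-log dose, ~10 μM-100 pM, 0.1% DMSO; 37° C, 5% CO2; ATP luminescence read; % inhibition vs T0 and vehicle, −100% cidal to 100% uninhibited growth.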

[3] = test system: Panc 05.04 cells (SF3b K700E mutant); test: as above; format: cell-based; conditions: for GI50: geometric mean
Procedure, shortened: as §1

[4] = Ad2.1 pre-mRNA substrate, read-out: qPCR-IVS-ATS GMean IC50 (nM) Ad2.1
[5] = Ad2.2 pre-mRNA substrate, read-out: qPCR-IVS-ATS GMean IC50 (nM) Ad2.2
[6] = NCI-H1568, read-out: CTGlo-ATS GMean GI50 (nM) 72 h NCIH1568.1, NCIH1568.1 cells, 72 h
[7] = NCIH1568.1 cells, 72 h, −100% cidal, 0% static, 100% maximal growth
[8] = PANC0504.1 cells, 72 h, −100% cidal, 0% static, 100% maximal growth
[9] = Panc 05.04, read-out: CTGlo-ATS GMean GI50 (nM) 72 h PANC0504.1, PANC0504.1 cells, 72 h
[10] = 72 h, NCIH1568.1, -100% = cidal, 0% = static, 100% = uninhibited growth
[11] = NCI-H1568, read-out: CTGlo-ATS GMean GI50 (nM) 72 h NCIH1568.1, 72 h, NCIH1568.1
[12] = 72 h, PANC0504.1, -100% = cidal, 0% = static, 100% = uninhibited growth
[13] = Panc 05.04, read-out: CTGlo-ATS GMean GI50 (nM) 72 h PANC0504.1, 72 h, PANC0504.1
[14] = NCI-H1568, 72 h, read-out: CTGlo-ATS GMean GI50 (nM) 72 h NCIH1568.1, NCIH1568.1 cells, 72 h
[15] = Panc 05.04, 72 h, read-out: CTGlo-ATS GMean GI50 (nM) 72 h PANC0504.1, PANC0504.1 cells, 72 h

Compound | IC50 (SF3b complexes) [nM] | IC50 [1, 4] [nM] | IC50 [1, 5] [nM] | GI50 [2, 6] [nM] | CTGlo-ATS Mean MinResponse % 72 h NCIH1568.1 [2, 7] [%] | CTGlo-ATS Mean MinResponse % 72 h PANC0504.1 [3, 8] [%] | GI50 [3, 9] [nM] | Ratio Ad2.1/2.2 [1] | CTGlo-ATS Mean MinResponse % 72 h NCIH1568.1 [2, 10] [%] | GI50 [2, 11] [nM] | CTGlo-ATS Mean MinResponse % 72 h PANC0504.1 [3, 12] [%] | GI50 [3, 13] [nM] | GI50 ([2]; NCI-H1568, 72 h, read-out: CTGlo-ATS GMean GI50 (nM) 72 h NCIH1568.1, 72 h, NCIH1568.1) [nM] | GI50 ([3]; Panc 05.04, 72 h, read-out: CTGlo-ATS GMean GI50 (nM) 72 h PANC0504.1, 72 h, PANC0504.1) [nM] | GI50 [2, 14] [nM] | GI50 [3, 15] [nM]
C/C(=C\c1cc(F)cc(N2CCNC2=O)c1)[C@H]1OC(=O)C[C@H](O)CC[C@H](C)[C@@H](OC(=O)N2CCN(C)CC2)/C=C/[C@@H]1C [Compound 64] | 3.08 | 116 | 24.4 | 6.5 | −66.274 | −92.050 | 7.96 |  |  |  |  |  |  |  |  | 
C/C(=C\c1cc(F)cc(N2CCN(CCO)CC2)c1)[C@H]1OC(=O)C[C@H](O)CC[C@H](C)[C@@H](OC(=O)N(C)C2CCN(C)CC2)/C=C/[C@@H]1C [Compound 54] | 4.29 | 12.4 | 15.8 | 7.81 | −96.584 | −94.487 | 8.66 |  |  |  |  |  |  |  |  | 
C/C(=C\c1cccc(S(=O)(=O)N2CC(F)(F)C2)c1)[C@H]1OC(=O)C[C@H](O)CC[C@H](C)[C@@H](OC(=O)N2CCN(C)CC2)/C=C/[C@@H]1C [Compound 206, [(2S,3S,4E,6R,7S,10R)-2-[(E)-1-[3-(3,3-difluoroazetidin-1-yl)sulfonylphenyl]prop-1-en-2-yl]-10-hydroxy-3,7-dimethyl-12-oxo-1-oxacyclododec-4-en-6-yl] 4-methylpiperazine-1-carboxylate] | 1.81 | > 25000 | 113 |  |  |  |  | 221.630 | −57.585 | 72.2 | −83.659 | 62.3 |  |  |  | 
C/C(=C\c1cc(F)cc(N2CCOCC2)c1)[C@H]1OC(=O)C[C@H](O)CC[C@H](C)[C@@H](OC(=O)NCCN(C)C)/C=C/[C@@H]1C [Compound 242, [(2S,3S,4E,6R,7S,10R)-2-[(E)-1-(3-fluoro-5-morpholin-4-ylphenyl)prop-1-en-2-yl]-10-hydroxy-3,7-dimethyl-12-oxo-1-oxacyclododec-4-en-6-yl] N-[2-(dimethylamino)ethyl]carbamate] | 15.3 | 7150 | 62.1 |  |  |  |  | 115.051 | −65.744 | 180 | −92.786 | 68.9 |  |  |  | 
CCNS(=O)(=O)c1cccc(/C=C(\C)[C@H]2OC(=O)CC(O)CCC(C)[C@@H](OC(=O)N3CCN(C)CC3)/C=C/[C@@H]2C)c1 (stereo in doubt) [Compound 210, [(2S,3S,4E,6R,7R,10S)-2-[(E)-1-[3-(ethylsulfamoyl)phenyl]prop-1-en-2-yl]-10-hydroxy-3,7-dimethyl-12-oxo-1-oxacyclododec-4-en-6-yl] 4-methylpiperazine-1-carboxylate] | 4.35 | 11000 | 32.7 |  |  |  |  | 336.112 | −51.154 |  | −96.896 |  | 17 | 27.8 |  | 
C/C(=C\c1cc(F)cc(N(C)C)c1)[C@H]1OC(=O)C[C@H](O)CC[C@H](C)[C@@H](OC(=O)N2CCN(C)CC2)/C=C/[C@@H]1C [Compound 29] | 5.6 | > 25000 | 90.7 | 53.8 | −19.404 | −90.429 | 34.7 |  |  |  |  |  |  |  |  | 
C/C(=C\c1cc(F)cc(N2CCC(=O)C2)c1)[C@H]1OC(=O)C[C@H](O)CC[C@H](C)[C@@H](OC(=O)N2CCN(C)CC2)/C=C/[C@@H]1C [Compound 35] | 4.78 | 913 | 27.1 | 107 | −46.227 | −87.702 | 53.2 |  |  |  |  |  |  |  |  | 
C/C(=C\c1cc(F)cc(N2CCN(C(=O)c3cn(C)cn3)CC2)c1)[C@H]1OC(=O)C[C@H](O)CC[C@H](C)[C@@H](OC(=O)N2CCN(C)CC2)/C=C/[C@@H]1C [Compound 120] | 3.97 | 25.3 | 26.5 |  | −75.164 | −78.098 |  |  |  |  |  |  |  |  | 11.2 | 9.42
C/C(=C\c1cccc(COC(=O)N2CC[C@@H](F)C2)c1)[C@H]1OC(=O)C[C@H](O)CC[C@H](C)[C@@H](OC(=O)N2CCN(C)CC2)/C=C/[C@@H]1C [Compound 260] | 0.196 | > 25000 | 99.4 |  |  |  |  | 251.398 | −44.621 | 42.3 | −47.734 | 39.5 |  |  |  | 
C/C(=C\c1cncc(Cl)c1)[C@H]1OC(=O)C[C@H](O)CC[C@H](C)[C@@H](OC(=O)N2CCN(C)CC2)/C=C/[C@@H]1C [Compound 46] | 12.2 | > 25000 | 114 | 78.4 | −10.684 | 0.031 | 40 |  |  |  |  |  |  |  |  | 
CN[C@@H]1CCN(c2cccc(/C=C(\C)[C@H]3OC(=O)C[C@H](O)CC[C@H](C)[C@@H](OC(=O)N4CCN(C)CC4)/C=C/[C@@H]3C)c2)C1 [Compound 9] | 14.9 | 107 | 27 | 116 | −83.308 | −87.085 | 63.9 |  |  |  |  |  |  |  |  | 
C/C(=C\c1cccc(N2CCCS2(=O)=O)c1)[C@H]1OC(=O)C[C@H](O)CC[C@H](C)[C@@H](OC(=O)N2CCN(C)CC2)/C=C/[C@@H]1C [Compound 49] | 3.04 | 16300 | 28.3 |  | −35.275 | −93.022 |  |  |  |  |  |  |  |  | 11.7 | 9.02
C/C(=C\c1cc(F)cc(N2CCOC(C)C2)c1)[C@H]1OC(=O)C[C@H](O)CC[C@H](C)[C@@H](OC(=O)N2CCN(C)CC2)/C=C/[C@@H]1C (stereo partly drawn) [Compound 70] | 1.55 | 17.6 | 16.5 |  | −77.042 | −83.969 |  |  |  |  |  |  |  |  | 3.37 | 5.94
C/C(=C\c1cc(F)cc(N2CC[C@H](NS(C)(=O)=O)C2)c1)[C@H]1OC(=O)C[C@H](O)CC[C@H](C)[C@@H](OC(=O)N2CCN(C)CC2)/C=C/[C@@H]1C [Compound 217, [(2S,3S,4E,6R,7S,10R)-2-[(E)-1-[3-fluoro-5-[(3S)-3-(methanesulfonamido)pyrrolidin-1-yl]phenyl]prop-1-en-2-yl]-10-hydroxy-3,7-dimethyl-12-oxo-1-oxacyclododec-4-en-6-yl] 4-methylpiperazine-1-carboxylate] | 3.18 | 18.4 | 16.6 |  |  |  |  | 1.107 | −71.339 | 13.8 | −91.288 | 15 |  |  |  | 
C/C(=C\c1cc(F)cc(-n2ccnc2)c1)[C@H]1OC(=O)C[C@H](O)CC[C@H](C)[C@@H](OC(=O)N2CCN(C)CC2)/C=C/[C@@H]1C [Compound 60] | 2.99 | > 25000 | 55.5 | 29.9 | −42.456 | −87.159 | 26.7 |  |  |  |  |  |  |  |  | 
C/C(=C\c1cc(F)cc(N2CCN(C(=O)C3CCOCC3)CC2)c1)[C@H]1OC(=O)C[C@H](O)CC[C@H](C)[C@@H](OC(=O)N2CCN(C)CC2)/C=C/[C@@H]1C [Compound 118] | 3.76 | 22 | 19.9 |  | −82.113 | −79.169 |  |  |  |  |  |  |  |  | 3 | 4.55
